Counter-ions that a name gives are not always drawn. Like-named read-outs stand apart in the source and are kept apart here.
Assays:
[1] = biological target: T1, α1A (rat epididymal vas deferens) (Rattus norvegicus, UniProt P43140); assay: cell-based; details: rat epididymal vas deferens (values marked *); read-out: Agonist Tissue Response (pD2) α1A, test performed using rat epididymal vas deferens (converted)
T1 sequence (P43140 1-466): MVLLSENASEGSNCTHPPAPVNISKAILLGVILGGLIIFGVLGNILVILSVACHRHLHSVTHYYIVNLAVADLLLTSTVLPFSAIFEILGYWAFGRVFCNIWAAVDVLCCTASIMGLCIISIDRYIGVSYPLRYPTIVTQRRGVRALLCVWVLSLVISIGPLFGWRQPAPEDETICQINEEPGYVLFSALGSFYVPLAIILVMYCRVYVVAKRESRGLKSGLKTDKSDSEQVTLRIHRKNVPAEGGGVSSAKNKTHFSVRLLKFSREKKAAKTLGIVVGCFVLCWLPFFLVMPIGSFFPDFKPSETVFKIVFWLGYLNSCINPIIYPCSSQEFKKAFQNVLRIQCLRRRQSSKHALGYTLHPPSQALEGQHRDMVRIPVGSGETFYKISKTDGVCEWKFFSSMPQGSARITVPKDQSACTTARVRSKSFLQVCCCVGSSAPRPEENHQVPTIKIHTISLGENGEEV

[2] = biological target: T2, α1b (hamster receptor expressed in mouse fibroblasts) (Mesocricetus auratus, UniProt P18841); assay: Radioligand binding with [3H]-prazosin, α1b; details: read-out: Radioligand Binding Ki α1b (Hamster)
T2 construct: expressed in transfected cells; host or cells: mouse fibroblasts
T2 sequence (P18841 1-515): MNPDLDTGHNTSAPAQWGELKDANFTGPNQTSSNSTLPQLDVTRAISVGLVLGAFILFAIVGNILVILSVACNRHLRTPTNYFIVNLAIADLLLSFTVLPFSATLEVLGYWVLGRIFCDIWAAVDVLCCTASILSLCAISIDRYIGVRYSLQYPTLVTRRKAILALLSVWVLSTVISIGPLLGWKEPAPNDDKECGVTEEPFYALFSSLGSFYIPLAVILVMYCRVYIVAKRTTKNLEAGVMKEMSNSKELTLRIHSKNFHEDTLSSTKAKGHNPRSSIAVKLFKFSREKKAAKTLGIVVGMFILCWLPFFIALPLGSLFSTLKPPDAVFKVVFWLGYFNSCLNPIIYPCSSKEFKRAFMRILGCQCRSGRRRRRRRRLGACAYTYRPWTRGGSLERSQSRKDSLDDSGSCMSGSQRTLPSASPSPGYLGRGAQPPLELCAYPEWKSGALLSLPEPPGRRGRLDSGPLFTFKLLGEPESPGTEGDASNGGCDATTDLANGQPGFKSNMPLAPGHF
Method in brief: (§1)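 Radioligand binding with [3H]-prazosin: α1A from rat submaxillary gland; α1b hamster receptor and α1d rat receptor, each expressed in mouse fibroblasts.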

[3] = biological target: T3, α1B (rat spleen) (Rattus norvegicus, UniProt P15823); assay: Agonist contraction of smooth muscle tissue, rat spleen; type: cell-based; details: read-out: Agonist Tissue Response (pD2) α1B (rat spleen) (converted)
T3 construct: α1B (rat spleen) and α1D (rat aorta) receptors; from tissue; host or cells: rat spleen
T3 sequence (P15823 1-515): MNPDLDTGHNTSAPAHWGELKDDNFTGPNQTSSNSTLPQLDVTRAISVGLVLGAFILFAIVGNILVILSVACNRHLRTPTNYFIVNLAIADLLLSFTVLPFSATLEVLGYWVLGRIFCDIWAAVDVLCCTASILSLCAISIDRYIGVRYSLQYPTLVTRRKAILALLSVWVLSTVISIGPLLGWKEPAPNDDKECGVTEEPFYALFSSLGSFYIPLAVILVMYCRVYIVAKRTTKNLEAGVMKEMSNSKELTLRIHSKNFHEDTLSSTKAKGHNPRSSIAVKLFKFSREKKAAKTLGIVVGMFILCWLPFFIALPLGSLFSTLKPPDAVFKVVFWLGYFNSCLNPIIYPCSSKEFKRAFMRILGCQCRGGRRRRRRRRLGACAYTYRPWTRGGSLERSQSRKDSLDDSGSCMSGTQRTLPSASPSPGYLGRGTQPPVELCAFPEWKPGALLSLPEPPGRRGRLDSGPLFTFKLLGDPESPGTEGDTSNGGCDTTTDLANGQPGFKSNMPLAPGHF

[4] = biological target: T4, α1D (rat aorta) (Rattus norvegicus, UniProt P23944); assay: Agonist contraction of smooth muscle tissue, rat aorta; type: cell-based; details: read-out: Agonist Tissue Response (pD2) α1D (rat aorta) (converted)
T4 construct: α1B (rat spleen) and α1D (rat aorta) receptors; from tissue; host or cells: rat aorta strips, endothelium removed
T4 sequence (P23944 1-561): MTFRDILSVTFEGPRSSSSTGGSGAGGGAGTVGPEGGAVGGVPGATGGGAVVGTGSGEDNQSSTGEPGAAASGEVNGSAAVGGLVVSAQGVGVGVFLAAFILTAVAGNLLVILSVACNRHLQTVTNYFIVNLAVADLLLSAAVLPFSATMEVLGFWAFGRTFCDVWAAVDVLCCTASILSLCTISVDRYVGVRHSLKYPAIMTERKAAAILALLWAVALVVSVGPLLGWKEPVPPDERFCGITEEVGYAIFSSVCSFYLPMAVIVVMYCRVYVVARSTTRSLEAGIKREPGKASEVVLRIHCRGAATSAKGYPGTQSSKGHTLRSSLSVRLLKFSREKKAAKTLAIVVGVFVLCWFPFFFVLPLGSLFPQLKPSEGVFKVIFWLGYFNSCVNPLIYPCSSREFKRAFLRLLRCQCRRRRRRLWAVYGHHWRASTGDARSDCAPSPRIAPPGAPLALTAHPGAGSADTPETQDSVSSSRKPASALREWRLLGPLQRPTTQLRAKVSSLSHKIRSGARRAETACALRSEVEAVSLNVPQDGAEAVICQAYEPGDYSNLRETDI

[5] = biological target: T5, α1A (rat submaxillary gland) (Rattus norvegicus, UniProt P43140); assay: Radioligand binding with [3H]-prazosin, α1A
T5 construct: α1A (rat submaxillary gland); from tissue; host or cells: rat submaxillary gland
T5 sequence (P43140 1-466): T1 sequence (P43140 1-466)
Method in brief: as §1

[6] = biological target: T6, α1d (rat receptor expressed in mouse fibroblasts) (Rattus norvegicus, UniProt P23944); assay: Radioligand binding with [3H]-prazosin, α1d; details: read-out: Radioligand Binding Ki α1d (Rat)
T6 construct: expressed in transfected cells; host or cells: mouse fibroblasts
T6 sequence (P23944 1-561): T4 sequence (P23944 1-561)
Method in brief: as §1

[7] = test system: Anesthetized Dogs; assay: Intraurethral pressure (IUP) in anesthetized dogs; type: in vivo, dog; details: Canis lupus familiaris; iv dose causing a maximum increase in IUP of 5 mm Hg, anesthetized female dogs; read-out: Mean IUP ED5
[8] = test system: Anesthetized Dogs; assay: Mean arterial pressure (MAP) in anesthetized dogs; type: in vivo, dog; details: iv dose causing a maximum increase in MAP of 20 mm Hg, anesthetized female dogs
Source text: In vivo Functional Assays-Assessment of Intrurethral Pressure (IUP) and Mean Arterial Pressure (MAP) in Anesthetized Dogs
Female dogs (Marshall Farms, North Rose, N.Y.) greater that 2 years of age and weighing between 12 and 15 kg were used in these studies. At least 2 weeks prior to any agonist dosing, dogs were instrumented for the chronic measurement of arterial blood pressure by implanting a telemetry transducer/transmitter (TA11PA-C40, Data Sciences International, St. Paul, Minn.) into a carotid artery.
On the test day, dogs fasted since the previous afternoon were pre-anesthetized with thiopental sodium 15 mg/kg i.v. (Pentothal™, Abbott) and intubated. Anesthesia was maintained by allowing the dog to spontaneously breathe a mixture of isoflurane (2.5 to 3 volume %) and oxygen delivered by a Narkomed Standard anesthesia system (North American Drager, Telford, Pa.). An Abbocath-T™ i.v. catheter (18-G, Abbott) was inserted into the cephalic vein for the administration of agonists. A telemetry receiver (RA1310, DataSciences) was placed under the head of each dog and was interfaced to a computerized data acquisition system (Modular Instruments Inc.(MI2), Malvern, Pa.) which allowed for the continuous calibrated recording of arterial blood pressure which was electronically filtered to determine its mean value (MAP).
Dogs with chronic telemetry implants anesthetized as described above were placed in dorsal recumbency and a balloon catheter was inserted into the urethral orifice and advanced approximately 15 cm until the tip was well inside the bladder. The balloon was then inflated with 1 ml of room air and the catheter slowly withdrawn until resistance (corresponding to the bladder neck) was evident. The balloon was then deflated and the catheter withdrawn an additional 2 cm. The balloon was then reinflated and its catheter port connected to a Gould Statham P23Dd pressure transducer interfaced to a computerized data acquisition system (Modular Instruments, Inc., Malvern, Pa.) for the measurement of intraurethral pressure. Increasing iv doses of test agonists were administered and the maximum effect of each dose on IUP was recorded. The effect of each dose was allowed to return to baseline before the next dose was given.
From the resulting dose response curve, an ED5 value, for the dose causing a maximum increase in IUP of 5 mm Hg, could be estimated. An ED20 value for the dose causing a maximum increase in MAP of 20 mm Hg could also be estimated. A selectivity ratio of MAP ED20 vs. IUP ED5 was calculated.

[9] = test system: Anesthetized Dogs; assay: Urethral pressure profile in anesthetized dogs; type: in vivo, dog; details: increasing iv doses, FIG. 1
Source text: Assessment of Urethral Pressure Profile in Anesthetized Dogs
Dogs instrumented and anesthetized as decribed above were placed in left lateral recumbency and a dual pressure sensor catheter (SPC-771, Millar Instruments, Houston, Tex.) was inserted into the urethra and advanced into the bladder. The proximal pressure sensor was interfaced to a MI2 computerized data acquisition system for the measurement of lower urinary tract pressures. At a resting intravesical pressure of approximately 5 cm of H2O, urethral pressure was measured from the sensor as the catheter was withdrawn using a modified syringe pump (Model 22, Harvard Apparatus, South Natick, Mass.) at its maximal rate of 0.83 mm/sec. Measurement from the proximal sensor allowed easy reinsertion as the distal 5 cm of the catheter remains in the urethra after the total profile has been obtained. Three resting urethral pressure profiles were obtained at 5 minute intervals before dosing, then a single profile was initiated 30 sec after each increasing iv dose during the time corresponding to the maximum arterial pressure effects of that dose. The increase in arterial pressure seen after each agonist dose was allowed to return to baseline before the next dose was given.

| SMILES | EC50 [1] | Ki [2] | EC50 [3] | EC50 [4] | Ki [5] | Ki [6] | Ki ([2]; hamster receptor expressed in mouse fibroblasts, [3H]-prazosin) | EC50 ([3]; rat spleen) | EC50 ([4]; rat aorta, endothelium removed) | Ki ([5]; rat submaxillary gland, [3H]-prazosin) | Ki ([6]; rat receptor expressed in mouse fibroblasts, [3H]-prazosin) | ED (5 mmHg IUP increase) [7] | Mean MAP ED20 [8] | urethral pressure profile [9] |
| --- | --- | --- | --- | --- | --- | --- | --- | --- | --- | --- | --- | --- | --- | --- |
| Cn1cncc1C1CCCc2c1ccc(O)c2NS(C)(=O)=O (stereo not drawn) [Example 4, N-[2-hydroxy-5-(1-methyl-1H-imidazol-5-yl)-5,6,7,8-tetrahydro-1-naphthalenyl]methanesulfonamide, hydrochloride] | 309 µM | 31.6 µM | > 1000 µM | 95.5 µM | 24.6 µM | 31.6 µM |  |  |  |  |  |  |  |  |
| Cc1nc(C2CCCc3c2ccc(O)c3NS(C)(=O)=O)c[nH]1 (stereo not drawn) [Example 3, N-[2-hydroxy-5-(2-methyl-1H-imidazol-4-yl)-5,6,7,8-tetrahydro-1-naphthalenyl]methanesulfonamide, hydrochloride] | 1.95 µM |  |  |  |  |  | 50.4 µM | 12.9 µM | 28.2 µM | 0.991 µM | 8.29 µM |  |  |  |
| CS(=O)(=O)Nc1cccc2c1CCCC2c1c[nH]cn1.Cl (stereo not drawn) [Example 8, N-[5-(1H-imidazol-4-yl)-5,6,7,8-tetrahydro-1-naphthalenyl]methanesulfonamide, hydrochloride] |  |  |  |  |  |  |  |  |  |  |  | 0.0255 µmol/kg | 102 nmol/kg | corresponding increases in the urethral pressure |
| COc1ccc2c(c1NS(C)(=O)=O)CCCC2c1c[nH]cn1 (stereo not drawn) [Example 1, N-[5-(1H-imidazol-4-yl)-2-methoxy-5,6,7,8-tetrahydro-1-naphthalenyl]methanesulfonamide, hydrochloride] | > 1000 µM | 1.7 µM | 955 µM | 5.5 µM | 0.5 µM | 0.482 µM |  |  |  |  |  |  |  |  |

— patent US6503935B1, “Imidazoles and related compounds as α1A agonists” (Abbott Laboratories, priority 1998, dated 2003)
